Patent US5935945A, “Methods of treating or preventing cardiac arrhythmia” (Merck & Co., Inc., priority 1997, dated 1999)

Columns and labels:
Type in all cases: cell-based
[1] = target: T1, IKur (ultra-rapidly-activating delayed rectifier K^+ current) (Homo sapiens, UniProt P22460); assay: Voltage-clamp measurement of IKur in isolated human atrial myocytes; details: rested state block, first pulse; 150 ms pulses to +40 mV from -50 mV; room temperature (22-24° C); read-out: Rested State IC50, IKur in Human Atrium
T1 construct: isolated human atrial myocytes; from tissue; host or cells: isolated myocytes from human right atrial appendage
T1 sequence (P22460 whole entry): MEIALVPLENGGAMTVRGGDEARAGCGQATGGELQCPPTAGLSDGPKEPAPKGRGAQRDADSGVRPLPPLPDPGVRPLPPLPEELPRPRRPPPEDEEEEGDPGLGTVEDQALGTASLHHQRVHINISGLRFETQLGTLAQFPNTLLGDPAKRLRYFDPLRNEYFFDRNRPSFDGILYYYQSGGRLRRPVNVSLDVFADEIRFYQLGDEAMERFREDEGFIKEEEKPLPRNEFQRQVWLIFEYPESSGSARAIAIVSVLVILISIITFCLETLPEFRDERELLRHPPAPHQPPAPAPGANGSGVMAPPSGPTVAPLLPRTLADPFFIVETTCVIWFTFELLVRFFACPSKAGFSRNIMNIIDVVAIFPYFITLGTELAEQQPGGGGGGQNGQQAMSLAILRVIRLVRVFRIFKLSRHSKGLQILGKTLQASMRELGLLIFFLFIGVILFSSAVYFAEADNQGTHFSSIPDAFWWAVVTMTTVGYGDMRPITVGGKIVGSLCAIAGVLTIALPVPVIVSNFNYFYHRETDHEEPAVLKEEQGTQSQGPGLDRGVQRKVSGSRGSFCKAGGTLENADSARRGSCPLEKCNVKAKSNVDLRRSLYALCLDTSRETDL
Description: J. Physiol. […] All tissues were collected in accordance with Temple University School of Medicine Institutional guidelines. […] Tissue samples were quickly immersed in cold (0-4° C.) cardioplegia solution containing (in mM/L): 50 KH2 PO4, 8 MgSO4, 10 NaHCO3, 5 adenosine, 25 taurine, 140 glucose, and 100 mannitol, pH 7.4 and bubbled with 100% O2. […] The tissue was gently agitated by continuous bubbling with 100% O2 for 5 min. […] The supernatant was removed after 40 min and discarded. The chunks were then incubated in a solution of the same ionic composition but supplemented with only collagenase and […] CaCl2. Microscopic examination of the medium was performed every 10-20 min to determine the number and quality of isolated cells. […] The supernatant was collected in a 50 ml centrifuge tube. […] Cells were used within 2-24 hr after isolation.
A small aliquot of the solution containing the isolated human atrial myocytes was placed in a 1-ml chamber mounted on the stage of an inverted microscope. Five minutes were allowed for cell adhesion to the bottom of the chamber. To record IKur, human atrial myocytes were superfused with a solution of the same ionic composition as that used for Kv1.5. An alternative external solution was sometimes used in which NaCl was replaced with NMDG (formal name: N-methyl-d-glucamine) to inhibit INa.
The amplitude of IKur was measured as the amplitude of the time-dependentcurrent at the end of the test pulse, relative to the holding current level. […] All experiments were performed at room temperature (22-24° C.).

[2] = target: T2, IKs (slowly activating delayed rectifier K^+ current) (Cavia porcellus, UniProt O70344); assay: Voltage-clamp measurement of IKs in guinea pig ventricular myocytes; details: read-out: % Block (Guinea Pig Ventricle) IKs
T2 construct: Guinea pig ventricular myocytes were isolated; from tissue; host or cells: isolated guinea pig ventricular myocytes
T2 sequence (O70344 whole entry): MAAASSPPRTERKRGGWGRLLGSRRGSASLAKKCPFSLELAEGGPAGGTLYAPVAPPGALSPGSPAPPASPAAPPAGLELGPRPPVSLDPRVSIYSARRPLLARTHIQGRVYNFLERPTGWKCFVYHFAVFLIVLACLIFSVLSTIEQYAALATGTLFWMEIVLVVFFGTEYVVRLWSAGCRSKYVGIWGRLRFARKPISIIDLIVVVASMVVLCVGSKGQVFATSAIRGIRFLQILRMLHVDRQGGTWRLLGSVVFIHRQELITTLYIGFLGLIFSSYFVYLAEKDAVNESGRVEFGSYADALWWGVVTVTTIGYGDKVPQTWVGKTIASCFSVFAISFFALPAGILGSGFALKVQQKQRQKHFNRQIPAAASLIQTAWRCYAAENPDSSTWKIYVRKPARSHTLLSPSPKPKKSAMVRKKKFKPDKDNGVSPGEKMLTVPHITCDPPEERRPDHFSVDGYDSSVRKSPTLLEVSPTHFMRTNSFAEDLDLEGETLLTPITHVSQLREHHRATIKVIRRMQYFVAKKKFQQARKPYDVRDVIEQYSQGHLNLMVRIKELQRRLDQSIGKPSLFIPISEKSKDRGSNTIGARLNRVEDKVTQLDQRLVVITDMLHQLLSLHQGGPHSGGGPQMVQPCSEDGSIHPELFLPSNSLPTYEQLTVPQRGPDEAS
T2 sequence (Q60409 whole entry partner): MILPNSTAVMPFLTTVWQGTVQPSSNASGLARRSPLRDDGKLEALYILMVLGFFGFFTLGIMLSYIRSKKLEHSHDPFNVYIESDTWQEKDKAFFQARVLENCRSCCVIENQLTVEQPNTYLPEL
Description: (§1) Guinea pig ventricular myocytes were isolated using a modification of the procedure described by Mitra et al., Am. J. Physiol. 249:H1056-60 (1985). Excised hearts were perfused through the aorta (retrograde fashion) at a rate of 10 ml/min with oxygenated, warmed (37° C.) solutions described below. The heart was initially perfused for 7 minutes with a Tyrode's solution containing, (in mM): 132 NaCl, 4 KCl, 1.2 MgCl2, 10 HEPES, 5 glucose, pH=7.2. The heart was then perfused with the same nominally Ca^2+ -free solution containing 150 units/ml Type II collagenase (Worthington) and 0.5 units/ml Type XIV protease (Sigma) for 8 minutes. This perfusate was followed by a Tyrode's solution containing 0.2 mM CaCl2 (without enzymes) for 5 minutes. The digested ventricles were cut into small pieces and gently shaken until cells were visibly dispersed. The cells were stored at room temperature until use, within 8 hours after isolation.
(§2) The suction microelectrode technique described by Giles, W. R. and Shibata, E. F., "Voltage clamp of bull-frog cardiac pacemaker cells: a quantitative analysis of potassium currents", J. Physiol. 368:265-292 (1985) was used to voltage clamp the cells. Microelectrodes were made by using a two stage puller from square bore (1.0 mm o.d.) borosilicate capillary tubing. Pipettes were filled with 0.5 M K gluconate, 25 mM KCl and 5 mM K2 ATP. The electrodes had resistances of 3 to 7 M.OMEGA. when filled with this solution. After establishing whole-cell recording mode, negative pressure was maintained on the pipette using a 1 ml gas-tight syringe attached via air tight tubing to the suction port of the microelectrode holder. This minimized dialysis of the cell with the pipette solution.
(§3) To record K^+ currents, the cells were bathed in a Ca^2+ -free Tyrode's solution containing […]. […] To record Ca^2+ currents, the cells were bathed in Tyrode's solution containing 1.8 mM Ca^2+ without nisoldipine. The cell chamber was superfused with solutions at a rate of 1-2 ml/minute, while maintaining the temperature at 35±1° C. A List EPC-7 clamp amplifier was used to voltage clamp the isolated cells. […] (Sanguinetti M. C. and Jurkiewicz, N. K., "Two components of cardiac delayed rectifier K^+ current: Differential sensitivity to block by Class III antiarrhythmic agents", J. Gen Physiol 1990; 96:194-214.) Data was analyzed as % block from control membrane currents.
(§4) Nisoldipine was prepared as a 4 mM stock solution in polyethylene glycol 200. […] At the final concentrations used neither polyethylene glycol 200 nor dimethyl sulfoxide had any effect on any of the measured membrane currents.
(§5) Selectivity for block of cardiac K^+ channels, IK1, IKr, and IKs was determined as previously described in guinea pig ventricular myocytes (U.S. Pat. No. 5,428,031).

[3] = test system: IK1 (inward rectifier K^+ current); assay: Voltage-clamp measurement of IK1 in guinea pig ventricular myocytes
Description: as §1, §2, §3, §4, §5

IC50 [1]	inhibition at 10 µM ([2]; @ 10 μM)	Compound	% Block (Guinea Pig Ventricle) IK1 ([3]; @ 10 μM)	inhibition at 3 µM [2]	% Block (Guinea Pig Ventricle) IK1 ([3]; @ 3 μM)
230 nM	4%	COc1ccc(-n2nc(Sc3ccc(Cl)cc3)c(C)c(C#N)c2=O)cc1 [Compound A, 6-(4-Chlorophenylthio)-2-(4-methoxyphenyl)-5-methyl-3-oxo-2,3-dihydropyridazine-4-carbonitrile]	6%		
80 nM		COc1ccc(-n2nc(Sc3ccc(C)cc3)c(C)c(C#N)c2=O)cc1 [Compound B]		13.6%	4.4%

Compound	IC50 [1]	inhibition at 10 µM ([2]; @ 10 μM)	% Block (Guinea Pig Ventricle) IK1 ([3]; @ 10 μM)	inhibition at 3 µM [2]	% Block (Guinea Pig Ventricle) IK1 ([3]; @ 3 μM)
Cc1cc(C)c(CP(=O)(c2ccccc2)c2ccccc2)c(-c2ccc(F)c(C)c2)c1 [Compound C, 2-(Diphenylphosphinylmethyl)-4'-fluoro-3,5,3'-trimethyl-biphenyl]	780 nM			12.2%	15.1%
